Assay results from the NIST ThermoML archive (doi:10.1021/je500606d).
Numbers after ± are expanded uncertainties.

Details: Liquid, Ebulliometric method (Recirculating still)

COCC(CO)OC (stereo not given) [2,3-dimethoxy-1-propanol]
vapor or sublimation pressure (337.95 K): 3.2 ± 3 kPa | vapor or sublimation pressure (368.95 K): 7.84 ± 3 kPa | vapor or sublimation pressure (398.1 K): 19.27 ± 3 kPa | vapor or sublimation pressure (408.55 K): 27.33 ± 3 kPa | vapor or sublimation pressure (413.05 K): 32.46 ± 3 kPa | vapor or sublimation pressure (419.7 K): 38.8 ± 3 kPa | vapor or sublimation pressure (423.55 K): 45.86 ± 3 kPa | vapor or sublimation pressure (431.55 K): 59.8 ± 3 kPa | vapor or sublimation pressure (433.15 K): 65.6 ± 3 kPa | vapor or sublimation pressure (434.85 K): 70.66 ± 3 kPa | vapor or sublimation pressure (437.35 K): 76.53 ± 3 kPa | vapor or sublimation pressure (439.75 K): 83.33 ± 3 kPa | vapor or sublimation pressure (441.65 K): 87.26 ± 3 kPa | vapor or sublimation pressure (444.45 K): 95.73 ± 3 kPa | vapor or sublimation pressure (446.65 K): 100.79 ± 3 kPa
